From ChEMBL document CHEMBL2396526, “Chromenylchalcones showing cytotoxicity on human colon cancer cell lines and in silico docking with aurora kinases” (Bioorg Med Chem, 2013) come the findings set out here.

The test system of the first assay is HCT-116. Nature of the assay: Cytotoxicity against human HCT116 cells by MTT assay. In kind it is functional, cell-based.
Settings: not given
Molecule `O=C(O[C@@H]1Cc2c(O)cc(O)cc2O[C@@H]1c1ccc(O)c(O)c1)c1cc(O)c(O)c(O)c1` [EPICATECHIN GALLATE] came in with an IC50 of 76 µM. Still for that read-out and setting: the same measure for `O=C(O[C@H]1Cc2c(O)cc(O)cc2O[C@@H]1c1ccc(O)c(O)c1)c1cc(O)c(O)c(O)c1` [CATECHIN GALLATE]: 53 µM.

A further assay relates to HCT-116. Briefly: Cytotoxicity against human HCT116 cells assessed as cell survival at 5 to 40 uM after 7 days by crystal violet staining assay. The format is functional, cell-based. To be noted: HCT-116, 168 h.
Regarding `COc1ccccc1C(=O)/C=C/C1=Cc2cc(Br)ccc2OC1`, the IC50 came out at 6.13 µM. The same measure, in the same setting: the same measure for `COc1cc(/C=C/C(=O)C2=Cc3cc(OC)ccc3OC2)cc(OC)c1`: 0.33 µM; for `COc1ccc(C(=O)/C=C/C2=Cc3ccc(OC)cc3OC2)cc1`: 10.5 µM.

Consider `COc1ccc2c(c1)C=C(/C=C/C(=O)C1=Cc3cc(OC)ccc3OC1)CO2`, for which the IC50 is 12.9 µM.

As to `COc1ccc2c(c1)C=C(C(=O)/C=C/c1cc(OC)c(OC)cc1OC)CO2`, the IC50 was 2.5 µM. Same read-out and setting: the same measure for `COc1cc(OC)cc(C(=O)/C=C/C2=Cc3cc(OC)ccc3OC2)c1`: 35.5 µM; for `COc1ccc(/C=C/C(=O)C2=Cc3cc(OC)ccc3OC2)cc1`: 0.59 µM; for `COc1ccc2c(c1)C=C(C(=O)/C=C/c1ccc(OC)cc1OC)CO2`: 3.97 µM.

For the molecule `COc1ccc2c(c1)C=C(/C=C/C(=O)c1ccccc1OC)CO2`, the IC50 came to 1.04 µM.

As for `COc1ccc(C(=O)/C=C/C2=Cc3cc(OC)ccc3OC2)cc1`, the IC50 is 7.95 µM. With `COc1ccc2c(c1)C=C(C(=O)/C=C/C1=Cc3cccc(OC)c3OC1)CO2`, the IC50 is 7.19 µM.

With `COc1cccc(C(=O)/C=C/C2=Cc3cc(Br)ccc3OC2)c1`, the IC50 amounted to 4.56 µM.

In the case of `COc1ccc2c(c1)C=C(C(=O)/C=C/c1ccccc1OC)CO2`, the IC50 was 1.62 µM. The same measure, in the same setting: as for `COc1ccc2c(c1)C=C(C(=O)/C=C/C1=Cc3ccc(OC)cc3OC1)CO2`, the figure is 18.8 µM; as for `COc1cc(OC)cc(C(=O)/C=C/C2=Cc3cc(Br)ccc3OC2)c1`, 3.4 µM.
